Laboratory results reported in the supplement of paper PMC13380429.

Key:
Conditions in all cases: 72 h
HepG2 [1] = experiment: relative viability EC50 (midpoint between 100% and the lowest measured viability); higher = less toxic
Caco-2 [2] = experiment: as above
Calu-3 [3] = experiment: as above
Vero E6 [4] = experiment: as above
U2OS [5] = experiment: as above
HepG2 [6] = experiment: drug sensitivity score (DSS) for viability; higher = more toxic; extreme values may be limits of the assay
Caco-2 [7] = experiment: as above
Calu-3 [8] = experiment: as above
Vero E6 [9] = experiment: as above
U2OS [10] = experiment: as above
HepG2 [11] = experiment: cell viability relative to DMSO; higher = less toxic
Caco-2 [12] = experiment: as above
Calu-3 [13] = experiment: as above
Vero E6 [14] = experiment: as above
U2OS [15] = experiment: as above

| SMILES | relative viability EC50 (HepG2 [1]) [µM] | relative viability EC50 (Caco-2 [2]) [µM] | relative viability EC50 (Calu-3 [3]) [µM] | relative viability EC50 (Vero E6 [4]) [µM] | relative viability EC50 (U2OS [5]) [µM] | drug sensitivity score (HepG2 [6]) | drug sensitivity score (Caco-2 [7]) | drug sensitivity score (Calu-3 [8]) | drug sensitivity score (Vero E6 [9]) | drug sensitivity score (U2OS [10]) | cell viability (HepG2 [11]; 1 nM) [%] | cell viability (HepG2 [11]; 10 nM) [%] | cell viability (HepG2 [11]; 100 nM) [%] | cell viability (HepG2 [11]; 1000 nM) [%] | cell viability (HepG2 [11]; 10000 nM) [%] | cell viability (Caco-2 [12]; 1 nM) [%] | cell viability (Caco-2 [12]; 10 nM) [%] | cell viability (Caco-2 [12]; 100 nM) [%] | cell viability (Caco-2 [12]; 1000 nM) [%] | cell viability (Caco-2 [12]; 10000 nM) [%] | cell viability (Calu-3 [13]; 1 nM) [%] | cell viability (Calu-3 [13]; 10 nM) [%] | cell viability (Calu-3 [13]; 100 nM) [%] | cell viability (Calu-3 [13]; 1000 nM) [%] | cell viability (Calu-3 [13]; 10000 nM) [%] | cell viability (Vero E6 [14]; 1 nM) [%] | cell viability (Vero E6 [14]; 10 nM) [%] | cell viability (Vero E6 [14]; 100 nM) [%] | cell viability (Vero E6 [14]; 1000 nM) [%] | cell viability (Vero E6 [14]; 10000 nM) [%] | cell viability (U2OS [15]; 1 nM) [%] | cell viability (U2OS [15]; 10 nM) [%] | cell viability (U2OS [15]; 100 nM) [%] | cell viability (U2OS [15]; 1000 nM) [%] | cell viability (U2OS [15]; 10000 nM) [%] |
| --- | --- | --- | --- | --- | --- | --- | --- | --- | --- | --- | --- | --- | --- | --- | --- | --- | --- | --- | --- | --- | --- | --- | --- | --- | --- | --- | --- | --- | --- | --- | --- | --- | --- | --- | --- |
| FC(F)(F)c1ccccc1-c1cc(C(F)(F)F)c2[nH]c(C3=NOC4(CCCCC4)C3)nc2c1 [TC-I-2014] | > 10 | > 10 | > 10 | > 10 | > 10 | 0 | 0 | 0 | 0 | 0 | 91.6 | 103 | 97.4 | 98.4 | 89.3 | 91.9 | 95.5 | 96.8 | 93.4 | 89.8 | 112 | 105 | 97.7 | 99.8 | 97.7 | 95.6 | 98.8 | 90.1 | 94.8 | 89.5 | 106 | 103 | 103 | 100 | 90.7 |
| CC(C)c1ccccc1Cc1cc(C(=O)Nc2ccc(S(=O)(=O)c3ccccc3C(C)(C)C)cc2)c(O)c(O)c1O [TW-37] | 0.704 | 0.557 | 1.75 | 0.746 | 0.654 | 10.6 | 13.1 | 6.2 | 12 | 13 | 98.8 | 98.6 | 96.1 | 49.6 | 20.3 | 88.7 | 89.7 | 93.5 | 36.7 | 9.2 | 107 | 98.1 | 107 | 86 | 28.8 | 92.1 | 102 | 96.1 | 43.2 | 7.7 | 102 | 94.7 | 95.7 | 36.5 | 4.6 |
| CC(C)C(=O)c1ccc(O)c(O)c1 [U-0521] | > 10 | > 10 | > 10 | > 10 | > 10 | 0 | 0.5 | 0 | 0 | 0 | 96.3 | 77.3 | 109 | 114 | 105 | 98.6 | 102 | 101 | 88 | 97 | 102 | 96.9 | 102 | 94.4 | 97.4 | 108 | 104 | 102 | 97.6 | 92.9 | 99.8 | 95.4 | 100 | 97.3 | 93.6 |
| CCCN(CCC)[C@@H]1CCc2c(OC)cccc2[C@@H]1C [UH-232-(+)] | > 10 | > 10 | > 10 | > 10 | > 10 | 0 | 0 | 0 | 0 | 0 | 97.7 | 103 | 87.2 | 102 | 95.8 | 95.6 | 100 | 97.1 | 93.6 | 92.7 | 102 | 104 | 103 | 102 | 95 | 95.9 | 102 | 96.5 | 101 | 100 | 108 | 106 | 104 | 101 | 99.4 |
| CC[C@]1(O)C[C@@H]2CN(CCc3c([nH]c4ccccc34)[C@@](C(=O)OC)(c3cc4c(cc3OC)N(C)[C@H]3[C@@](O)(C(=O)OC)[C@H](OC(C)=O)[C@]5(CC)C=CCN6CC[C@]43[C@@H]65)C2)C1 [Vinblastine (sulfate)] | 0.0053 | 0.0105 | 0.0105 | 0.0688 | 0.0071 | 27.8 | 24.1 | 22 | 20.6 | 31.8 | 99.3 | 43.9 | 34.7 | 32.5 | 34.8 | 90.3 | 56.8 | 44.4 | 43.9 | 27.7 | 87.5 | 64.9 | 50.5 | 41.6 | 34.3 | 100 | 91.3 | 48.8 | 30.1 | 18.1 | 96.1 | 48.1 | 24.9 | 19.6 | 16.8 |
| CC[C@]1(O)C[C@H]2CN(CCc3c([nH]c4ccccc34)[C@@](C(=O)OC)(c3cc4c(cc3OC)N(C=O)[C@H]3[C@@](O)(C(=O)OC)[C@H](OC(C)=O)[C@]5(CC)C=CCN6CC[C@]43[C@@H]65)C2)C1 [Vincristine (sulfate)] | 0.0102 | 0.0094 | 0.0248 | 0.196 | 0.0302 | 24.3 | 23.3 | 19.1 | 14.4 | 24.7 | 109 | 68.4 | 39.2 | 35.4 | 36.9 | 91.9 | 66 | 42.5 | 41.4 | 34.8 | 88 | 78.2 | 54.8 | 39.6 | 34.6 | 98.9 | 102 | 82.9 | 34.2 | 29.8 | 97.1 | 80.8 | 35.4 | 19.5 | 17.6 |
| COC(=O)c1ccc(N2CCN(C)CC2)c(NC(=O)c2cccc(OC)c2)c1 [WDR5-0103] | > 10 | > 10 | > 10 | > 10 | > 10 | 0 | 0 | 0 | 0 | 0 | 102 | 114 | 85.5 | 112 | 102 | 88.8 | 97.5 | 91.7 | 99.9 | 89.8 | 98.9 | 93.4 | 99.5 | 97.4 | 97.8 | 94.6 | 98.2 | 94.2 | 102 | 103 | 98.5 | 94.8 | 96.8 | 95.5 | 101 |
